From US7888025B2, “Intestinal folate transporter method” (Albert Einstein College of Medicine of Yeshiva University, priority 2007, dated 2011)
Entries after “also recorded” stand apart in the source; their conditions may differ. Where two headings read alike, the source gives them in different places. One block for each molecule: values may come before it.

Experiments:
[1] = molecular target: T1, HCP1 murine ortholog (Mus musculus, UniProt Q6PEM8, A402V); conditions: HeLa cells, read-out: Km for [55Fe]hemin uptake; cited from earlier work
T1 construct: host or cells: HeLa cells infected with a cDNA-containing adenovirus vector
T1 sequence (Q6PEM8 1-459 A402V): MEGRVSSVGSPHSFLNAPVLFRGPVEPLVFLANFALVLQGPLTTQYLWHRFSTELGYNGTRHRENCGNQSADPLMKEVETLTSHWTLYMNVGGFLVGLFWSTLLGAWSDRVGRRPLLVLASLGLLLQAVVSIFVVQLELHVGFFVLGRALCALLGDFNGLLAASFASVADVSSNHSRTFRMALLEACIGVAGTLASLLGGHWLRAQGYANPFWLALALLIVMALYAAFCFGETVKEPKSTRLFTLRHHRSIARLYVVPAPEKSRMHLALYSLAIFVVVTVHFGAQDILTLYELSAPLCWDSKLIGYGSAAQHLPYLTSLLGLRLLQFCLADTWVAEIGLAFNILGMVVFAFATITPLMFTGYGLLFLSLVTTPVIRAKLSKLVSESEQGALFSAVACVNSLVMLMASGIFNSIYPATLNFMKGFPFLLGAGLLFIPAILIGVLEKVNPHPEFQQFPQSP

[2] = molecular target: T2, G21 (PCFT) (Homo sapiens, UniProt Q96NT5); test: Two-electrode voltage-clamp electrophysiology in G21 cRNA-injected Xenopus oocytes; format: cell-based
T2 construct: expressed in transfected cells; host or cells: Xenopus laevis oocytes injected with capped G21 cRNA (pSPT64, SP6)
T2 sequence (Q96NT5 1-459): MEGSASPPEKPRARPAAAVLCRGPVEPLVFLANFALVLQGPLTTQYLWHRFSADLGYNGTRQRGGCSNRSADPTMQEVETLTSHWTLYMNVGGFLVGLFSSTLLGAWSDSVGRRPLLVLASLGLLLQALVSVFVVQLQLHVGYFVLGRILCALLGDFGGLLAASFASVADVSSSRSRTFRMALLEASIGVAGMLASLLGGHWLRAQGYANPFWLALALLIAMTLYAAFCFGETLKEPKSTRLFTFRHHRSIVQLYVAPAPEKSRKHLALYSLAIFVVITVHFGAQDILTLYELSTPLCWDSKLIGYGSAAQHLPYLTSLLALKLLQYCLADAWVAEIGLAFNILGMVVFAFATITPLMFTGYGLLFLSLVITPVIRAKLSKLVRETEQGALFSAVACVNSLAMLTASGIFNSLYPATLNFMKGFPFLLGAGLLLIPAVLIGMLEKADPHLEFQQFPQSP
Procedure: (§1) Electrophysiological analyses in Xenopus oocytes. Defolliculated oocytes were injected with 50 nl of water (control) or G21 cRNA (50 ng), and kept at 17° C. in horse serum medium (in mM, 82.5 NaCl, 2.5 KCl, 1 MgCl2, 2.3 CaCl2, 5 HEPES, 5% horse serum, pH 7.5). Electrophysiological recordings were conducted 3-7 days after cRNA injection in buffer (in mM, 90 NaCl, 1 KCl, 1 MgCl2, 1.8 CaCl2, 5 TRIS, 5 MES) as described previously (Jansen and Akabas, 2006). Oocyte holding potential was −80 mV for Km determination. For current-voltage (I-V) relationships, from a −60 mV holding potential step changes in membrane potential were applied for 2 s in 10 mV increments between −100 and 30 mV in the absence and presence of substrate.

[3] = molecular target: T2, G21 (PCFT); test: Inhibition of [3H]folic acid uptake into G21 cRNA-injected Xenopus oocytes; format: cell-based; conditions: for inhibitory effect on uptake of 2 μM [3H]folic acid: 20 μM nonlabeled compound, pH 5.5, 30 min
Procedure: Uptake studies in Xenopus oocytes. […] Radiotracer uptake was determined 3 or 4 days later. […] Uptake was halted by the addition of ice-cold MBS (pH 7.5). Oocytes were washed 10 times thereafter, and solubilized with 10% SDS for measurement of radioactivity. To collapse the pH gradient across the oocyte membrane, seven to 10 oocytes were incubated in MBS (pH 5.5) containing 0, 10, 20, 40, 60 μM FCCP for 20 min, and uptake of transport substrates assessed at pH 5.5.

[4] = molecular target: T2, G21 (PCFT); test: Inhibition of [3H]folic acid uptake in HepG2 cells stably transfected with G21 cDNA; format: cell-based; conditions: 100 μM inhibitor, pH 6.5, HepG2 cells
Procedure: Transfection. Transfection of plasmid DNA was performed in HepG2, HeLa, and Caco2 cells with Lipofectamine 2000 (Invitrogen). HepG2 cells, stably transfected with either pcDNA3.1(+) or pcDNA3.1(+)G21, were generated by G418 selection (600 μg/ml). Double selection with puromycin (5 μg/ml) and hygromycin (50 μg/ml) was adopted to obtain stably transfected Caco-2 cells with both G21-silencing shRNA vectors, or with both non-silencing negative control plasmids.
Transport of folates in HepG2, HeLa and Caco2 cells. Initial uptake of tritiated folates in HepG2, HeLa, or Caco2 cells was assessed using a protocol designed for rapid uptake determinations in cells growing in monolayer culture in liquid scintillation vials (Sharif and Goldman, 2000) except that cells were incubated at pH 7.4 and 37° C. for 20 min before initiation of uptake. Substrate uptake was normalized to protein content.

[5] = tested on: rat jejunum brush border membranes; conditions: read-out: uptake Km, cited from earlier work
[6] = molecular target: T3, low-pH folate transporter (Homo sapiens, UniProt Q96NT5); conditions: cited from earlier work
T3 construct: host or cells: HeLa and other cells
T3 sequence (Q96NT5 1-459): T2 sequence (Q96NT5 1-459)

[7] = molecular target: T4, reduced folate carrier (SLC19A1) (Homo sapiens, UniProt P41440); conditions: cited from earlier work
T4 sequence (P41440 1-591): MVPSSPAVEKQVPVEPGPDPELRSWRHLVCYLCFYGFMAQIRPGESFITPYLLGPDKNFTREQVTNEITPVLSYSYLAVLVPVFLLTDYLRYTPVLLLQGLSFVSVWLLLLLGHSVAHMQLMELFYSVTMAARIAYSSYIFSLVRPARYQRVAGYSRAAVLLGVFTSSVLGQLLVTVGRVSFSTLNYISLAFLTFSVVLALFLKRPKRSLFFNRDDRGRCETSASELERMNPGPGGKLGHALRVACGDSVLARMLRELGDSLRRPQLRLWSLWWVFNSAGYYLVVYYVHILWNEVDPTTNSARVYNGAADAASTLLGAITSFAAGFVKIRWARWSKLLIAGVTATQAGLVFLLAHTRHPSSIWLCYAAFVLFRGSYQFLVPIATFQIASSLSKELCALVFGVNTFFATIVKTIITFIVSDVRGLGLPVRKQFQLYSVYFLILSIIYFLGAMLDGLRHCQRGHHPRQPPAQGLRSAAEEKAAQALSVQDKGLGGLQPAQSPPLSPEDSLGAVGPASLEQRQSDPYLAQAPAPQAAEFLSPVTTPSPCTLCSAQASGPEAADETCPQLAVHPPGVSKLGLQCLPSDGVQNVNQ

[8] = molecular target: T2, G21 (PCFT); test: Uptake of tritiated folates in G21 cRNA-injected Xenopus oocytes; format: cell-based
Procedure: (§2) Uptake studies in Xenopus oocytes. Defolliculated Xenopus laevis oocytes were prepared as described (Jansen and Akabas, 2006) and injected with 50 nl of water or G21 cRNA (30 ng). Radiotracer uptake was determined 3 or 4 days later. Seven to 10 oocytes were incubated in 500 μl of Modified Barth's Solution (MBS, in mM, 88 NaCl, 2.4 NaHCO3, 2.5 Na pyruvate, 1 KCl, 0.82 MgSO4, 0.41 CaCl2, 0.3 Ca(NO3)2, 15 MES or HEPES) and uptake of tritiated folate substrates assessed at room temperature. Uptake was halted by the addition of ice-cold MBS (pH 7.5). Oocytes were washed 10 times thereafter, and solubilized with 10% SDS for measurement of radioactivity. To collapse the pH gradient across the oocyte membrane, seven to 10 oocytes were incubated in MBS (pH 5.5) containing 0, 10, 20, 40, 60 μM FCCP for 20 min, and uptake of transport substrates assessed at pH 5.5.

[9] = substrate: CN(Cc1cnc2nc(N)nc(N)c2n1)c1ccc(C(=O)N[C@@H](CCC(=O)O)C(=O)O)cc1; test: cells, lysate or membranes
[10] = substrate: Nc1nc2ncc(CNc3ccc(C(=O)N[C@@H](CCC(=O)O)C(=O)O)cc3)nc2c(=O)[nH]1; test: Uptake of tritiated folates in G21 cRNA-injected Xenopus oocytes; format: cell-based, human
Procedure: as §2

[11] = substrate: Nc1nc2ncc(CNc3ccc(C(=O)N[C@@H](CCC(=O)O)C(=O)O)cc3)nc2c(=O)[nH]1; test: Two-electrode voltage-clamp electrophysiology in G21 cRNA-injected Xenopus oocytes; format: cell-based, human; conditions: 17.0 °C
Procedure: as §1

[12] = pH 5.5, intestinal and other human cells
[13] = other: extracellular pH 5.5, pH 5.5
[14] = other: extracellular pH 6.0, pH 6.0
[15] = other: extracellular pH 6.5, pH 6.5
[16] = other: extracellular pH 7.0, pH 7.0
[17] = other: extracellular pH 7.5, pH 7.5

inhibitory effect on uptake of 2 μM [3H]folic acid [3]: weak inhibitor
inhibition of 2 μM [3H]folic acid uptake ([3]; 100 μM inhibitor, pH 6.5, Xenopus oocytes): 42±7%
inhibition of 2 μM [3H]folic acid uptake [4]: 30±5%
Molecule: hemin
Km [1]: 125 µM
substrate-induced current ([2]; 100 μM hemin, with 0.1% bovine serum albumin or 200 μM arginine): no current could be detected; also recorded: unable to detect

current amplitude larger than (6S)5-MTHF-induced current ([2]; saturating concentrations, same oocyte, pH 5.5): 39±6%
inhibition at 100 µM ([3]; read-out: inhibition of 2 μM [3H]folic acid uptake, 100 μM inhibitor, pH 6.5, Xenopus oocytes): 92 ± 2%
inhibition at 100 µM ([4]; read-out: inhibition of 2 μM [3H]folic acid uptake): 90 ± 0.02%
decrease in Vmax ([8]; over the pH range of 5.5 to 6.5): 2.4 fold
uptake Vmax ([8]; pH 5.5, same batch of oocytes): 13 pmol/oocyte/hr
uptake Vmax ([8]; pH 7.5, same batch of oocytes): 5 pmol/oocyte/hr
increase in Km ([8]; pH increased from 5.5 to 7.0): 2.6 fold
increase in Km ([8]; pH increased from 7.0 to 7.5): 18 fold
Molecule: Nc1nc2ncc(CNc3ccc(C(=O)N[C@@H](CCC(=O)O)C(=O)O)cc3)nc2c(=O)[nH]1 [folic acid]
Km ([5]; pH 5.5): 0.6 µM
Km ([5]; pH 7.4): 12.3 µM
Ki [6, 12]: ~0.6 µM
Ki [7]: ~200 µM

inhibitory effect on uptake of 2 μM [3H]folic acid [3]: did not inhibit
Molecule: Nc1nc(N)c2nc(CNc3ccc(C(=O)N[C@@H](CCCNC(=O)c4ccccc4C(=O)O)C(=O)O)cc3)cnc2n1 [PT523]
Ki ([6]; HeLa and other cells): > 50 µM
Ki [6, 12]: > 50 µM
Ki [7]: ~0.7 µM

B1: G21 (PCFT) (Homo sapiens) (protein)
chain: T2 sequence (Q96NT5 1-459)
notes: expressed in transfected cells; host or cells: Xenopus laevis oocytes injected with capped G21 cRNA (pSPT64, SP6)
Km [9, 13]: 3.4 ± 0.8 (n = 3) μM
Km [9, 14]: 3.4 ± 0.5 (n = 3) μM
Km [9, 15]: 7.3 ± 0.6 (n = 3) μM
Km [9, 16]: 16.3 ± 2.8 (n = 4) μM
Km [9, 17]: 130.7 ± 11.6 (n = 3) μM
Km ([9]; other: pH 5.5, holding potential −80 mV, pH 5.5, 17.0 °C): 2.01 ± 0.16 µM
Km ([9]; other: pH 6.5, holding potential −80 mV, pH 6.5, 17.0 °C): 8.07 ± 0.60 µM
Km [10, 13]: 1.3 ± 0.1 µM
Km [10, 14]: 1.5 ± 0.1 (n = 2) μM
Km [10, 15]: 2.7 ± 0.2 (n = 3) μM
Km [10, 16]: 6.0 ± 2.6 (n = 2) μM
Km [10, 17]: 56.2 ± 5.6 µM
Km ([11]; other: pH 5.5, holding potential −80 mV, pH 5.5): 0.83 ± 0.05 µM
Km ([11]; other: pH 6.5, holding potential −80 mV, pH 6.5): 2.99 ± 0.09 µM
